Assay [1] relates to SW480 cells. Briefly: DTP model of CRC cell line SW480 with 5-fluorouracil and SN-38. It is filed as cell-based. On the procedure:
A model for resistance to standard-of-care chemotherapy for colorectal cancer (CRC) was developed by treating CRC cell line SW480 with a combination of 5-fluorouracil and the irinotecan active metabolite SN-38 in a ratio of their relative IC50 values (33 μM 5-FU and 6 ηM SN-38) continuously for 16 days, followed by drug withdrawal. The cells progressively die during this treatment period. The remaining DTP cells constitute approximately 8% of the initial cell population and appear large and non-dividing. After drug withdrawal, cells continue to die for several more days, but then re-initiate proliferation and expand to form DTEP colonies by about 2 weeks in the absence of drugs.

Assay [2] deals with PC9 cells. In words: Drug tolerant persister (DTP) assay, PC9 with Tarceva (erlotinib). It is filed as cell-based, human. The note with it: stained 30 days after. The source says:
[…] Viable cells remaining attached on the dish at the end of the third round of relevant drug treatment were considered to be DTPs, and were collected for analysis.
(§1) The structures of CPI-382 and CPI-383 are provided below.

Assay [3] concerns HT144. In words: Cell viability assay (cell titer Glo), HT144. The settings on record: Homo sapiens, HT-144, 96 h; HT144, 4 days of incubation, 8 doses. The assay is classed as cell-based. On the procedure:
(§2) One goal was to identify a cell line that would be sensitive to vemurafenib and amenable to DTP formation. For this, a set of 18 melanoma cell lines were tested by standard cell viability assay using cell titer Glo readout after 4 days of incubation with 8 different doses of vemurafenib. The results identified 3 melanoma cell lines (A375, Colo829 and HT144) with GI50's below 600 nM. All 3 of these cell lines were b raf mutant. After experiments with all these cell lines, Colo-829 was selected as the preferred cell line for DTP establishment.
(§3) 1.1 Identifying melanoma cell lines sensitive to Vemurafenib • Day 0: 1000 cells/well were plated in 100 μl total volume in a 96 well flat bottom plate. • Day 1: The cells were treated with vemurafenib. The highest concentration in the assay was 20 μM and was diluted 3 fold down with the lowest concentration being 9 nM. • Day 5: 100 μl of cell titer glo was added to each well and the plates read on Envision. The data was plotted using graphpad prism. 1.2 DTP establishment in melanoma cell lines • Day 0: Cells (4.5×10^6 cells/P150 dishes) were plated, 4 plates/cell line. • Day 2: All the cell lines were 60-80% confluent. […] The cells in these plates were counted and ⅛th the numbers were replated in 2 new P150 dishes. […] The cells were counted and the percentage of cells remaining on the Vemurafenib treated dish vs the control dish were identified. […]
On the technique in general: In ATP-based viability assays light output follows the ATP content of the culture.

The subject of assay [4] is A375. Briefly: Cell viability assay (cell titer Glo), A375. It is filed as cell-based. The settings on record: Homo sapiens, A-375, 96 h; A375, 4 days of incubation, 8 doses. How it is done: as §2, §3
Assay [5] relates to Colo829. Briefly: Cell viability assay (cell titer Glo), Colo829. The assay is classed as cell-based. The settings on record: Homo sapiens, COLO-829, 96 h; Colo829, 4 days of incubation, 8 doses. How it is done: as §2, §3
For assay [6], the system named is H441 cells. In words: Drug tolerant persister (DTP) assay, H441. It is filed as cell-based. The note with it: in combination with the recited cancer therapy agent. On the procedure: Specifically for carboplatin and paclitaxel DTPs, Cells were plated and grown to 60-70% confluency then treated with Carboplatin (5.38 uM) and Paclitaxel (1.25 uM) for 5 cycles of 24 hours on 48 hours off drug. DTPs were collected and analyzed 1 week after the final dose of chemotherapy.
as §1

The test system of assay [7] is PC9 cells. In words: Gamma irradiation of PC9 cells after KDM5 inhibitor pretreatment. The assay is classed as cell-based, human. On the procedure:
For Gamma irradiation the cells were treated for 5 days with inhibitors replated at 500,000 cells with the inhibitor. After cell attachment (approximately 8 hours), the cells were irradiated, and cells were counted 5 days after irradiation.

The subject of assay [8] is H3K4me3. Briefly: H3K4me3 MSD ELISA in H441. The assay is classed as cell-based. The settings on record: H441 (NSCLC). On the procedure: (§4) Cells were rinsed with PBS and MSD Buffer AT (10 mM HEPES, pH 7.9, 5 mM MgCl2, 0.25M sucrose, Benzonase (1:10000), 1% Triton X-100 supplemented with fresh 1× Protease Inhibitor cocktail and 1 mM PMSF/AEBSF) was added. Cells were lysed for 30 minutes and then 10 uL 5M NaCl was added and allowed to lyse on ice for another 15 minutes. Lysates were rinse with 150 uL ice-cold NO Salt NO detergent buffer (20 mM Tris pH 7.5, 1 mM EDTA, 1 mM EGTA, supplemented with fresh 1× Protease Inhibitor cocktail and 1 mM PMSF).
(§5) MSD plates (Catalog #L15XA-3) were then coated with Capture Antibody Anti-histone (Millipore Catalog # MAB3422) for H3K4me3: 2 ug/mL final concentration and/or plates testing for H3: 1 ug/mL final concentration. MSD plates were then blocked with 5% Blocker A (MSD Catalog #R93AA-2). Lysates to MSD plates were subsequently transferred, sealed and incubated with shaking at RT for 2:30 hours and then incubated with detection antibody in 1% Blocker A in TBST for 30 min (anti-Histone H3 (#4499 from Cell Signaling) at 0.125 ug/mL and/or anti-K4Me3 (#9751 from Cell Signaling) at 1 ug/mL). Sulfo-tag rabbit antibody (MSD Catalog# R32AB-1) in 1% Blocker A in TBST was added and incubated for 1 h at RT. […] 1× Read Buffer (MSD Catalog #R92TD-3) was added and read on MSD SECTOR® Imager 2400. Data was analyzed data using MACRO template provided using samples treated with DMSO as 0% or Min. […]
In general terms: An ELISA detects its analyte on a solid surface through an enzyme-linked reagent.

Assay [9] concerns H3K4me3. In words: H3K4me3 MSD ELISA in PC9. The assay is classed as cell-based, human. The note with it: PC9 (NSCLC). How it is done:
as §4, §5

Assay [10] relates to SKBR3. In words: Drug tolerant persister (DTP) assay, SKBR3. The assay is classed as cell-based. The settings on record: in combination with the recited cancer therapy agent. On the procedure: (§6) Drug-sensitive cells were treated with relevant drug as described herein at concentrations exceeding 100 times the established IC50 values, for three rounds, with each treatment lasting 72 hours. Viable cells remaining attached on the dish at the end of the third round of relevant drug treatment were considered to be DTPs, and were collected for analysis.
as §1

In assay [11] the test system is SKBR3. In words: Cell number with KDM5 antagonist alone, SKBR3. The note with it: after 96 hours in drug, concentrations below 25 uM. The assay is classed as cell-based. How it is done: (§7) 3×10^4 cells were plated in each well of a 12-well cluster dish. 24 hours after plating, media was removed and replaced with media containing drugs. Fresh media was replaced every 2 days until untreated cells reached confluence. Media was then removed, cells were washed with Phosphate Buffered Saline (PBS), and then fixed for 15 min with 4% formaldehyde in PBS. Cells were then washed with PBS and stained with the fluorescent nucleic acid stain, Syto60 (1 nM in PBS; Molecular Probes) for 15 min. Dye was removed, cell monolayers were washed with PBS, and fluorescence quantitation was carried out at 700 nm with an Odyssey Infrared Imager (Li-Cor Biosciences).

Assay [12] relates to H3K4me3. In words: H3K4me3 MSD ELISA in H596. It is filed as cell-based. The settings on record: H596 (lung epithelial adenosquamous carcinoma). How it is done:
as §4, §5

Assay [13] concerns H3K4me3. In words: H3K4me3 MSD ELISA in SKBR3. It is filed as cell-based. The note with it: SKBR3 (breast cancer). On the procedure:
as §4, §5

Assay [14] relates to HCC1954. Briefly: Drug tolerant persister (DTP) assay, HCC1954. The settings on record: HCC1954 (breast cancer); in combination with the recited cancer therapy agent. It is filed as cell-based. On the procedure: as §6, §1
The test system of assay [15] is PC9 cells. In words: Cell number with KDM5 antagonist alone, PC9. The assay is classed as cell-based, human. The settings on record: after 96 hours in drug, concentrations below 50 uM. On the procedure:
as §7

The mark [16] stands for this setting: nuc-RED PC9, various concentrations for 5 days prior to 1 uM Tarceva (erlotinib).

`CC(/C=C/C(=O)NO)=C\[C@@H](C)C(=O)c1ccc(N(C)C)cc1` [Trichostatin A]: in [1] (20 ηM), the DTP survival entry was “does not affect DTP survival”.

In the case of `O=c1[nH]c(Oc2cnn(Cc3ccccc3)c2)nc2ncccc12` [CPI-383], the “development of drug tolerant persisters” value in assay [2] (setting [16]) is given as “no significant effect”.

As for `O=c1[nH]c(Oc2cnn(Cc3ccccc3)c2)nc2cnccc12` [CPI-382], in [2] (setting [16]), the “development of drug tolerant persisters” value is reported as “capable of reducing the development of drug tolerant persisters”.

Take `CCCS(=O)(=O)Nc1ccc(F)c(C(=O)c2c[nH]c3ncc(-c4ccc(Cl)cc4)cc23)c1F` [vemurafenib, Vemurafenib]: the GI50 in assay [3], in [4] and in [5] was below 600 nM each time.

For CPI-455, the “development of drug tolerant persisters” value is on record as “capable of inhibiting the development of drug tolerant persisters” in assay [6]; “capable of inhibiting the development of drug tolerant persisters” in [2] (PC9, in combination with cancer therapy agent, 25 uM for 5 days prior to 1uM Tarceva); “capable of inhibiting the development of drug tolerant persisters” in [7] (in combination with radiation therapy); “capable of inhibiting the development of drug tolerant persisters” in assay [10]; “capable of inhibiting the development of drug tolerant persisters” in [14]. In addition, the “number of cells following γ-irradiation” value in assay [7] (PC9, pretreatment for 5 days, compared to inactive controls) is recorded as “decreases the number of cells following γ-irradiation”. Besides, the H3K4me3 entry in assay [8], in assay [9], in assay [12] and in assay [13] was “increase H3K4me3” in each case. Besides, the cell number entry in [11] and in [15] was “did not substantially affect cell number” each time.

On to `Nc1ncn([C@@H]2O[C@H](CO)[C@@H](O)[C@H]2O)c(=O)n1` [5-azacytidine], for which the DTP survival result in assay [1] (0.2 μM) is listed as “does not affect DTP survival”.

As usually defined, the GI50 is the concentration that inhibits growth by half.

The record behind these values is patent US20160143910A1, “METHODS OF TREATING CANCER AND PREVENTING CANCER DRUG RESISTANCE” (GENENTECH, INC., priority 2013, published 2016).
